Assay results from ChEMBL document CHEMBL1201862, “PubChem BioAssay data set” (2004).
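Protocol summary: plate cells (96-well), add compound at 5 concentrations, incubate 48 h, interpolate endpoints linearly. Here, GI50 denotes the concentration required for 50% inhibition of growth.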 Calls of active or inactive are those of the source. Rule as the data show it: active = GI50 up to about 1.1 µM and inactive = higher.

Experiments:
Experiment in all cases: inhibition of tumour cell growth, NCI panel, 48 h
ACHN = test system: ACHN
BT-549 = test system: BT-549
CAKI-1 = test system: CAKI-1
COLO 205 = test system: COLO 205
HCT-116 = test system: HCT-116
HT-29 = test system: HT-29
Hs-578T = test system: Hs-578T
M14 = test system: M14
Malme-3M = test system: Malme-3M
NCI-H522 = test system: NCI-H522
NCI/ADR-RES = test system: NCI/ADR-RES
OVCAR-3 = test system: OVCAR-3
OVCAR-4 = test system: OVCAR-4
OVCAR-5 = test system: OVCAR-5
RPMI-8226 = test system: RPMI-8226
SF-539 = test system: SF-539
SK-MEL-2 = test system: SK-MEL-2
SNB-19 = test system: SNB-19
T47D = test system: T47D
UO-31 = test system: UO-31

Compound	GI50 (ACHN)	GI50 (BT-549)	GI50 (CAKI-1)	GI50 (COLO 205)	GI50 (HCT-116)	GI50 (HT-29)	GI50 (Hs-578T)	GI50 (M14)	GI50 (Malme-3M)	GI50 (NCI-H522)	GI50 (NCI/ADR-RES)	GI50 (OVCAR-3)	GI50 (OVCAR-4)	GI50 (OVCAR-5)	GI50 (RPMI-8226)	GI50 (SF-539)	GI50 (SK-MEL-2)	GI50 (SNB-19)	GI50 (T47D)	GI50 (UO-31)
CCOC(=O)c1sc2nc(SC)nc3c2c1NCN3c1ccc(F)c(F)c1	6.97 µM (inactive)	6.79 µM (inactive)	> 52.5 µM (inactive)	> 100 µM (inactive)	9.02 µM (inactive)	29.8 µM (inactive)	4.28 µM (inactive)	31.4 µM (inactive)	7.59 µM (inactive)	21.1 µM (inactive)	9.98 µM (inactive)	5.57 µM (inactive)	4.76 µM (inactive)	> 100 µM (inactive)	9.93 µM (inactive)	5.2 µM (inactive)	> 71 µM (inactive)	34.8 µM (inactive)	29.4 µM (inactive)	22.1 µM (inactive)
C1CCNCC1.O=C1NC(=S)N/C1=C/c1ccccc1O	> 100 µM (inactive)	> 100 µM (inactive)	> 100 µM (inactive)	> 100 µM (inactive)	> 100 µM (inactive)	> 100 µM (inactive)	26.4 µM (inactive)	> 100 µM (inactive)	> 100 µM (inactive)	92 µM (inactive)	> 100 µM (inactive)	> 100 µM (inactive)	> 100 µM (inactive)	> 100 µM (inactive)	45.2 µM (inactive)	> 100 µM (inactive)	> 100 µM (inactive)	> 100 µM (inactive)	56.2 µM (inactive)	95.3 µM (inactive)
COc1ccc(C(c2c[nH]c3ccc(Br)cc23)c2c[nH]c3ccc(Br)cc23)cc1	0.24 µM (active)	1.51 µM (inactive)	0.382 µM (active)	0.17 µM (active)	0.149 µM (active)	0.294 µM (active)	0.575 µM (active)	0.237 µM (active)	0.811 µM (active)	0.173 µM (active)	0.357 µM (active)	0.217 µM (active)	0.267 µM (active)	0.385 µM (active)	0.175 µM (active)	0.51 µM (active)	0.366 µM (active)	0.509 µM (active)	0.446 µM (active)	0.394 µM (active)
CC(C)(C)C1=CC(=C2C=Cc3cc(O)ccc3O2)C=C(C(C)(C)C)C1=O	1.69 µM (inactive)	1.79 µM (inactive)	1.62 µM (inactive)	1.72 µM (inactive)	1.17 µM (inactive)	1.65 µM (inactive)	2.27 µM (inactive)	1.69 µM (inactive)	1.59 µM (inactive)	1.48 µM (inactive)	1.95 µM (inactive)	1.21 µM (inactive)	1.31 µM (inactive)	2.13 µM (inactive)	0.782 µM (active)	1.87 µM (inactive)	1.63 µM (inactive)	1.77 µM (inactive)	0.627 µM (active)	1.24 µM (inactive)
COc1ccc(OC)c([N+](=O)[O-])c1-c1nc2sc(Cl)cn2c1/C=N/N=C(N)N	28.6 µM (inactive)	16.8 µM (inactive)	17.1 µM (inactive)	15.3 µM (inactive)	58.3 µM (inactive)	15.5 µM (inactive)	19.1 µM (inactive)	34.4 µM (inactive)	22.5 µM (inactive)	16.6 µM (inactive)	> 100 µM (inactive)	16 µM (inactive)	12.2 µM (inactive)	25.9 µM (inactive)	26.9 µM (inactive)	22.9 µM (inactive)	18.6 µM (inactive)	19.4 µM (inactive)	17.8 µM (inactive)	16.7 µM (inactive)
